From PubChem BioAssay AID435016 (Vanderbilt High Throughput Screening Facility, 2010)

System: HEK293 alpha2C/GIRK, thallium flux fluorescence
Experiment: alpha2C agonist potency with rauwolscine blockade, dose response, mechanism study for alpha2C adrenergic receptor project, cell-based, thallium flux (AID 435016)
Details: EC50 with rauwolscine antagonist

Q: CCSc1nnc(NC(=O)NC(CC)(C(F)(F)F)C(F)(F)F)s1 was tested. Which EC50 did it give?
A: 3.24 µM

Q: C=CCn1c(=S)[nH]c2ccccc2c1=O was tested. Which EC50 did it give?
A: 3.19 µM

Q: Which EC50 does the source give for O=c1c(-c2ccc3c(c2)OCCO3)c(C(F)(F)F)oc2cc(O)cc(O)c12 here?
A: 9.18 µM

Q: For CCOC(=O)c1ccc(NC(=O)NC(C)C2CCCO2)cc1 (centres undefined), which EC50 is on record?
A: 49.9 µM
